Assay results: PubChem BioAssay (NCI)
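Where inhibition never reached the appropriate level, the endpoint shown equals the highest concentration tested. Otherwise, values were interpolated linearly from a five-concentration, 48-hour dose response in 96-well plates. At the TGI there is no net growth.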

Key:
Assay in all cases: DTP human tumour cell line panel, 48 h
HCT-15 colon = tested on: HCT-15 colon
ACHN renal = tested on: ACHN renal
SF-268 CNS = tested on: SF-268 CNS
SN12C renal = tested on: SN12C renal
OVCAR-3 ovarian = tested on: OVCAR-3 ovarian
MCF7 breast = tested on: MCF7 breast
LOX IMVI melanoma = tested on: LOX IMVI melanoma
MDA-MB-231 breast = tested on: MDA-MB-231 breast
NCI-H226 lung = tested on: NCI-H226 lung
SF-295 CNS = tested on: SF-295 CNS

Compound	TGI (HCT-15 colon)	TGI (ACHN renal)	TGI (SF-268 CNS)	TGI (SN12C renal)	TGI (OVCAR-3 ovarian)	TGI (MCF7 breast)	TGI (LOX IMVI melanoma)	TGI (MDA-MB-231 breast)	TGI (NCI-H226 lung)	TGI (SF-295 CNS)
O=C/C(=C(/Br)I)c1ccccc1	5.65 µM	9.63 µM	7.97 µM	3.64 µM	7.65 µM	2.57 µM	10.9 µM	7.44 µM	26 µM	13.9 µM
COc1ccc(N2C(=O)C3ON(C(C(N)=O)c4ccccc4)C(c4ccc(-c5ccccc5)cc4)C3C2=O)cc1 (stereo not given)	> 50 µM	> 50 µM	> 50 µM	> 50 µM	> 50 µM	> 50 µM	> 50 µM	> 50 µM	> 50 µM	> 50 µM
O=c1cc(N2CCOCC2)[nH]c(=O)n1-c1cccc(C(F)(F)F)c1	> 100 µM	> 100 µM	> 100 µM	> 100 µM	> 100 µM	> 100 µM	> 100 µM	57 µM	> 100 µM	> 100 µM
CC(C)(C)c1nc2c(o1)C(=O)c1ccccc1C2=O	6.45 µM	5.69 µM	10.5 µM	2.29 µM	2.03 µM	1.35 µM	1.94 µM	1.97 µM	6.36 µM	4.25 µM
CCOC(=O)CCC(NC(=O)c1ccc(Oc2nc3ccc(C(F)(F)F)cc3nc2-c2ccccc2)cc1)C(=O)OCC (stereo not given)	> 100 µM	> 100 µM	42.1 µM	> 100 µM	> 100 µM	> 100 µM	> 100 µM	> 61.1 µM	17.6 µM	> 71.6 µM
COc1ccc2nc3cccc([N+](=O)[O-])c3c(NCCO)c2c1	0.0481 µM	0.0504 µM	0.111 µM	0.0792 µM	0.0419 µM	0.296 µM	0.00494 µM	0.041 µM	0.176 µM	1.03 µM
CCOc1ccc(/C(O)=C/c2nc3ccccc3nc2/C=C(\O)c2ccc(OCC)cc2)cc1	> 100 µM	> 100 µM	> 100 µM	> 100 µM	> 100 µM	> 100 µM	> 100 µM	> 100 µM	> 100 µM	> 100 µM
O=C1NC(Cc2c[nH]c3ccccc23)C(=O)N2C(C3CCCCC3)c3[nH]c4ccccc4c3C[C@@H]12 (stereo not given in full)	35.9 µM	77.4 µM	49.3 µM	20.8 µM	6.58 µM	> 100 µM	28.1 µM	30.6 µM	65.7 µM	43.5 µM
OC12COc3ccccc3C1Oc1ccccc1C2 (stereo not given)	> 100 µM	> 100 µM	> 100 µM	> 100 µM	> 100 µM	> 100 µM	> 100 µM	> 100 µM	> 100 µM	> 100 µM
CCCc1c(OC)c(=O)c2c(OC)cc(OC)c3c4c(OC)cc(OC)c5c(=O)c(OC)c(CCC)c(c1c23)c54	27.9 µM	29.3 µM	41.5 µM	50.4 µM	31.8 µM	46.6 µM	23.1 µM	18.3 µM	38.9 µM	33.1 µM
C[C@]12CC[C@@H]3c4cc(OCC(F)(F)F)c(O)cc4C(=O)C[C@H]3[C@@H]1CC[C@@H]2O	> 100 µM	> 100 µM	> 100 µM	> 100 µM	7.59 µM	> 100 µM	> 100 µM	> 66.4 µM	> 100 µM	15.4 µM
COc1cc(CCCOC(=O)/C=C/c2ccc(O)c(O)c2)cc(O)c1O	> 100 µM	> 100 µM	84.5 µM	> 100 µM	> 100 µM	69.4 µM	45.6 µM	91.7 µM	> 100 µM	> 100 µM
CC(C)(C)N(Cc1ccc2c(c1)OCO2)C(=O)/C=C\S(=O)c1ccccc1 (stereo not given)	13.2 µM	15.2 µM	5.78 µM	9.03 µM	7.4 µM	14.2 µM	7.51 µM	9.75 µM	11.2 µM	22.9 µM
CC(N)C(C)Cc1ccccc1 (stereo not given)	> 100 µM	> 100 µM	> 100 µM	> 100 µM	> 100 µM	> 100 µM	> 100 µM	> 100 µM	> 100 µM	> 100 µM
O=[N+]([O-])c1cccc2nc3ccccc3c(NCCc3cccc[n+]3[O-])c12	0.0639 µM	0.039 µM	0.202 µM	0.28 µM	0.11 µM	0.276 µM	0.121 µM	0.0538 µM	0.562 µM	0.266 µM
CN(NC(=O)CCCl)C1=NCCN1	> 100 µM	> 100 µM	> 100 µM	> 100 µM	> 100 µM	> 100 µM	> 100 µM	> 100 µM	> 100 µM	> 100 µM
CC1(C2(C)OC(=O)c3ccccc32)OC(=O)c2ccccc21 (stereo not given)	> 100 µM	> 100 µM	> 100 µM	> 100 µM	> 100 µM	> 100 µM	> 100 µM	> 100 µM	> 100 µM	> 100 µM
